Experimental findings from patent US20200239530A1, “COMPOUNDS AND METHODS OF MODULATING PROTEIN DEGRADATION” (Vividion Therapeutics, Inc., priority 2017, published 2020) are described below.

Assay [1] deals with T1, FAM120A Constitutive coactivator of PPAR-gamma-like protei (Homo sapiens, UniProt Q9NZB2).
T1 construct: 200 μL of lysate containing 5 mg/ml proteome was treated with 2 μL of 100× compound stock; endogenous in cells
T1 sequence (Q9NZB2 1-1118): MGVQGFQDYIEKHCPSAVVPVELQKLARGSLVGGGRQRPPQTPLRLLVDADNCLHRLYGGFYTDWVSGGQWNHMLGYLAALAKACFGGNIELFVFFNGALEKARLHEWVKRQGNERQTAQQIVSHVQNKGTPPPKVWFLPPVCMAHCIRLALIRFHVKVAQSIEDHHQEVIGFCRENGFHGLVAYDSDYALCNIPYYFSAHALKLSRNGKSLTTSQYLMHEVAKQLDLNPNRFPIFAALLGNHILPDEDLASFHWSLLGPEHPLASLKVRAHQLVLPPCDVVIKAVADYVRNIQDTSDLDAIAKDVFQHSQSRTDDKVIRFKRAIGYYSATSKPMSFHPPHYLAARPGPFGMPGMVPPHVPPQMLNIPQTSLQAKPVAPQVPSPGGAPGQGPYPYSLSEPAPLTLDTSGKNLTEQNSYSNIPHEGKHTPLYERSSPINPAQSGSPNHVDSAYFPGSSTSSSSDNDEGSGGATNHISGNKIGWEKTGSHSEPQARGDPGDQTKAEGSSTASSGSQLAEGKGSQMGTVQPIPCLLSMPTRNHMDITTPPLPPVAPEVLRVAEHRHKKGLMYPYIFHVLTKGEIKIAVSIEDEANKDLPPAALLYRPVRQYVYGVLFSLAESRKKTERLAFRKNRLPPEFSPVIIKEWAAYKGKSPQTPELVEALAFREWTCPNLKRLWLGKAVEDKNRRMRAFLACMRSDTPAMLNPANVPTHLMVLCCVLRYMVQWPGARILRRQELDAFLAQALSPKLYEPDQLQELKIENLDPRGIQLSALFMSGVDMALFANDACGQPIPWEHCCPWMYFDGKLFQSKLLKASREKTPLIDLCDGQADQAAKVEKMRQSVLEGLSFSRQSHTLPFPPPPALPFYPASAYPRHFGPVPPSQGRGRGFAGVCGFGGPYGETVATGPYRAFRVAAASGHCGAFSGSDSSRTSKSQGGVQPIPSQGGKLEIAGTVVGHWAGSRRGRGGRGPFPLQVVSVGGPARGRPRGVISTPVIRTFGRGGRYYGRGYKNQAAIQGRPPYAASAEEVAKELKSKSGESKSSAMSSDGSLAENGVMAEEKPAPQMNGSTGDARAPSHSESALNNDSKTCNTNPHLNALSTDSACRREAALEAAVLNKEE
Briefly: Cysteine liganding, probe competition. Type of assay: binding. Summed up:
(§1)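 Read-out is loss of desthiobiotin iodoacetamide labelling at cysteines, measured on streptavidin-enriched tryptic peptides. Compound preincubation ran 1 hr at 25° C in PBS lysate holding 5 mg/ml proteome before the probe was added.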

Assay [2] concerns the target T2, KDSR 3-ketodihydrosphingosine reductase (Homo sapiens, UniProt Q06136).
T2 construct: Cells were resuspended in cold PBS on ice and sonicated with a probe sonicator to achieve lysis; endogenous in cells
T2 sequence (Q06136 26-332): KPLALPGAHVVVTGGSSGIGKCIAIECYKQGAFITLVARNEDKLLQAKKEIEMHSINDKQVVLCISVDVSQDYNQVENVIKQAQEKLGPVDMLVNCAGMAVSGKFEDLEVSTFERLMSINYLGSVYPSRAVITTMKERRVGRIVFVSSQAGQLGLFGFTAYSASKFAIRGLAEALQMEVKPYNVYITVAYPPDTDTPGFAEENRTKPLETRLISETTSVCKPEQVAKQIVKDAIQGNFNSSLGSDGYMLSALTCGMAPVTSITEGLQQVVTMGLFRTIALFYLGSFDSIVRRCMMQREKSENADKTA
Briefly: Cysteine liganding, probe competition. The format is binding. A digest of the protocol: as §1

For the compound `O=C(CCl)Nc1cc(C(F)(F)F)cc(C(F)(F)F)c1` [KBO3], the 100 ave in assay [1] (uniprot Q9NZB2) was −8.925; in assay [2] (uniprot Q06136), −22.72. In addition, the “500 Max” value in assay [1] (uniprot Q9NZB2) amounted to 55.62. The compound further had a 500 ave in assay [1] (uniprot Q9NZB2) of 55.62. Further, the “100 Max” value in assay [1] (uniprot Q9NZB2, in % (unit assumed)) is 13.09; in assay [2] (uniprot Q06136, in % (unit assumed)), −22.72.

For `COc1ccc2c(c1)CCCN2C(=O)CCl` [KB02], the Liganded entry in assay [1] (FAM120A Res# 919, uniprot Q9NZB2) was “YES”; in assay [2] (KDSR Res# 121, uniprot Q06136) it was “YES”.
